# Measured values taken from EP0739978A2, “Hydantoinase from agrobacterium tumefaciens and its use for the preparation of optically pure N-carbamyl-D-amino acids from racemic hydantoins” (W.R. Grace & Co.-Conn., priority 1995, dated 1996).
# Experiments:
# [1] = tested on: Hydantoinase extract of A. tumefaciens ATCC 55632; test: Hydantoinase activation by metals; type: biochemical; details: 2 mM metal ion, dialyzed extract pre-incubated 30 minutes, assay at 40°C pH 9.0; control without addition 26.4
# Experimental: Reaction mixtures (total vol. of 0.4 ml in microfuge tubes) contained 75 µmol of DL-5-methylhydantoin (unless designated otherwise) in 50 mM Tris-HCl buffer (pH 9.0) and a suitable amount of hydantoinase extract. Hydantoinase extracts were added to reaction mixtures which had been pre-equilibrated at 40°C, and after 10 minutes incubation at this temperature, reactions were terminated by the addition of 100 µl of 10% (weight/volume) trichloroacetic acid, followed by 100 µl of 10% (weight/volume) PDMB in 6 N HCl. The solutions were mixed, diluted with 0.6 ml of water and centrifuged at 10,000 rpm for 5 minutes. The absorbencies of the supernatant fractions were determined at 440 nm with a Shimadzu Model 160 spectrophotometer. One unit of activity is defined as the amount of enzyme required to form 1 µmol of N-carbamyl amino acid under these conditions. Protein was determined by the BCA assay as per the manufacturer's instructions. […] Specific activity is expressed as units per mg protein.
# D. Hydantoinase activation by metals. […] Solutions (360 µl) containing either 2 mM Mg^++, Co^++ or Ni^++ in 50 mM Tris buffer, pH 9.0 were pre-incubated with dialyzed hydantoinase extract for 30 minutes at ambient temperature. The reaction mixtures were equilibrated in a 40°C water bath for 2 minutes. The hydantoinase assay was started immediately with the addition of 40 µl DL-5-methylhydantoin (100 mg/ml in 50 mM Tris-HCl buffer, pH 9.0).
# [2] = tested on: A. tumefaciens ATCC 55632; test: Induction of hydantoinase activity, basal salts medium with yeast extract and glucose; type: cell-based; details: addition 2 mg/ml, cells harvested after 8 hours; no addition 0.06
# Experimental: In particular it should be noted that the substrate specificity of hydantoinase from A. tumefaciens ATCC 55632 differs substantially from those described for other Agrobacterium species (5 and 6) due to its high relative activity with dihydrouracil and 5-methylhydantoin and its relatively low rate of hydrolysis with 5-benzylhydantoin F. Induction of hydantoinase activity. A. tumefaciens ATCC 55632 was grown in a medium containing basal salts medium, 1% yeast extract and 20 mM glucose. Various hydantoins or carbamyl amino acids were added to a concentration of 2 mg/ml to induce hydantoinase activity. Cells were harvested after 8 hours, hydantoinase extracts were prepared and hydantoinase activity was determined. […]
# [3] = tested on: A. tumefaciens ATCC 55632; test: Induction of hydantoinase activity, complex medium (separate experiment); type: cell-based; details: for Specific Activity (Units/mg): inducer 1 gm/liter, complex medium, 24 hours at 30°C, no inducer 0.13
# Experimental: 2,4-Thiouracil (2,4-dithiouracil) has been reported to induce hydantoinase activity in Agrobacterium IP I-671 by 40-fold [Meyer, et al., FEMS 109:71(1993)]. In a separate experiment, hydantoinase activities were determined following the growth of A. tumefaciens ATCC 55632 on a complex medium (750 ml) (see media preparation described in Example 1) containing the inducing compounds at 1 gm/liter. The culture media were inoculated with 24 hour seed culture of A. tumefaciens ATCC 55632 and incubated for 24 hours with shaking at 30°C. Hydantoinase extracts were prepared and the effect of 2,4-thiouracil on hydantoinase induction of A. tumefaciens is shown in Table 9.
# Agrobacterium IP I-671 = details: cited from earlier work
# [4] = tested on: A. tumefaciens ATCC 55632 hydantoinase; test: Substrate specificity; type: biochemical; details: for % Relative Activity with: ATCC 55632: Table 6 values rescaled to 5,6-Dihydrouracil = 100; for Relative Activity (%): substrate 5 mg/ml in 50 mM Tris-HCl pH 9.0, 40°C, 10 minutes, DL-5-Methylhydantoin = 100
# Experimental: A. Temperature/activity relationship. Hydantoinase activity was measured using a modification of the colorimetric procedure for detecting N-carbamyl amino acids with p-dimethylaminobenzaldehyde (PDMB) as described by Cecere, et al. (FEBS Letters, 57:192 (1975)). Reaction mixtures (total vol. of 0.4 ml in microfuge tubes) contained 75 µmol of DL-5-methylhydantoin (unless designated otherwise) in 50 mM Tris-HCl buffer (pH 9.0) and a suitable amount of hydantoinase extract. Hydantoinase extracts were added to reaction mixtures which had been pre-equilibrated at 40°C, and after 10 minutes incubation at this temperature, reactions were terminated by the addition of 100 µl of 10% (weight/volume) trichloroacetic acid, followed by 100 µl of 10% (weight/volume) PDMB in 6 N HCl. The solutions were mixed, diluted with 0.6 ml of water and centrifuged at 10,000 rpm for 5 minutes. The absorbencies of the supernatant fractions were determined at 440 nm with a Shimadzu Model 160 spectrophotometer. One unit of activity is defined as the amount of enzyme required to form 1 µmol of N-carbamyl amino acid under these conditions. Protein was determined by the BCA assay as per the manufacturer's instructions. (Pierce Chemical Co., Rockford, IL). Specific activity is expressed as units per mg protein. For the determination of the effect of temperature on hydantoinase activity, hydantoinase extracts of A. tumefaciens were added to reaction mixtures pre-equilibrated at various temperatures and activities were determined by the aforementioned assay. Controls (minus enzyme) were run for each temperature and the values obtained were subtracted from the test sample.
# Referring to Table 5, the hydantoinase of the present invention differs from previously described hydantoinases in its combination of high temperature and pH optima, pH stability and lack of requirement or stimulation by metal ions. […] E. Substrate specificity. The substrate specificity of the A. tumefaciens ATCC 55632 hydantoinase was determined by adding hydantoinase extract to 0.4 ml of substrate solution (5 mg/ml 50 mM Tris-HCl buffer, pH 9.0) and incubating the reaction mixtures at 40°C in a water bath for 10 minutes in sealed tubes. The reactions were terminated and further processed as described previously. Controls (minus enzyme) were run for each substrate the values obtained were subtracted from the test sample.
# hydantoinase [5] = details: Arthrobacter crystallopoietes AM2 hydantoinase; cited from earlier work
# hydantoinase [6] = details: P. striata hydantoinase; cited from earlier work
# hydantoinase [7] = details: Pseudomonas sp. AJ 11220 hydantoinase; cited from earlier work
# hydantoinase [8] = details: Agrobacterium radiobacter hydantoinase; cited from earlier work
# hydantoinase [9] = target: hydantoinase (Pseudomonas putida, UniProt Q59699); details: Pseudomonas fluorescens DSM 84 hydantoinase; cited from earlier work
# hydantoinase [10] = details: Agrobacterium IP I671 hydantoinase; cited from earlier work
# Chain of hydantoinase (Pseudomonas putida, UniProt Q59699) (Q59699 whole entry): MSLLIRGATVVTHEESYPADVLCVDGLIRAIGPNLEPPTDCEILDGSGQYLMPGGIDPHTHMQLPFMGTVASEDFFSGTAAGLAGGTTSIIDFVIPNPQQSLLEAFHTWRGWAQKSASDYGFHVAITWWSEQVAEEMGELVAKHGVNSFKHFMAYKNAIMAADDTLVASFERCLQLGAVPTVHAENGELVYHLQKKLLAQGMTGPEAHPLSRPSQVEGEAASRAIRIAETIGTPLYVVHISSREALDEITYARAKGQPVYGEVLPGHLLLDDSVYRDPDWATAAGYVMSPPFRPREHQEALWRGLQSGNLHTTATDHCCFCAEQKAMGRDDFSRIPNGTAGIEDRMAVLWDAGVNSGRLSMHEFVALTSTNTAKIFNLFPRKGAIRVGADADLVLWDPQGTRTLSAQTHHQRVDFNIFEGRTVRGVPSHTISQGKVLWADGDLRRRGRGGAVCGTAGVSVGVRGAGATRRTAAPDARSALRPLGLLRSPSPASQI
compound,measurement,setting,value
[Mg+2] [Magnesium],Hydantoinase Activity (Units/ml),[1],24.8 Units/ml
O=C1CNC(=O)N1 [Hydantoin],Specific Activity (U/mg),[2],1.44 U/mg
same,increase of hydantoinase activity,"[3]; A. tumefaciens ATCC 55632, versus no inducer",10 fold
same,Specific Activity (Units/mg),[3],1.37 Units/mg
same,induction of hydantoinase activity (in words),"Agrobacterium IP I-671; FEMS 109:71, 1993",does not induce hydantoinase activity
O=C1NC(=O)C(c2ccccc2)N1 (racemic) [DL-5-Phenylhydantoin],% Relative Activity with: ATCC 55632,[4],68%
same,Relative Activity (%),[4],85%
same,% Relative Activity with: 1,hydantoinase [5],37%
same,% Relative Activity with: 3,hydantoinase [6],25%
same,% Relative Activity with: 4,hydantoinase [7],34%
same,% Relative Activity with: 5,hydantoinase [8],51%
NC(=O)N[C@@H](Cc1ccccc1)C(=O)O [N-carbamylphenylalanine],Specific Activity (U/mg),[2],0.13 U/mg
"S=c1cc[nH]c(=S)[nH]1 [2,4-Thiouracil]",induction of hydantoinase activity (in words),[3]; A. tumefaciens ATCC 55632,does not appear to induce hydantoinase activity
same,Specific Activity (Units/mg),[3],0.15 Units/mg
same,induction of hydantoinase activity,"Agrobacterium IP I-671; Meyer, et al., FEMS 109:71(1993)",40 fold
O=C1NC(=O)C(CO)N1 (racemic) [DL-5-Hydroxymethylhydantoin],Relative Activity (%),[4],22%
[Ni+2] [Nickel],Hydantoinase Activity (Units/ml),[1],25.0 Units/ml
"O=C1CCNC(=O)N1 [5,6-Dihydrouracil]",% Relative Activity with: ATCC 55632,[4],100%
same,Relative Activity (%),[4],125%
same,Specific Activity (U/mg),[2],0.22 U/mg
same,% Relative Activity with: 1,hydantoinase [5],78%
same,% Relative Activity with: 2,hydantoinase [9],100%
same,% Relative Activity with: 3,hydantoinase [6],100%
same,% Relative Activity with: 4,hydantoinase [7],9%
same,% Relative Activity with: 6,hydantoinase [10],10%
CC(C)C1NC(=O)NC1=O (racemic) [DL-5-Isopropylhydantoin],Relative Activity (%),[4],73%
CSCCC1NC(=O)NC1=O (centres unmarked) [5(2-methylthioethyl) hydantoin],% Relative Activity with: ATCC 55632,[4],65%
same,Relative Activity (%),[4],81%
same,% Relative Activity with: 2,hydantoinase [9],41%
same,% Relative Activity with: 3,hydantoinase [6],48%
same,% Relative Activity with: 4,hydantoinase [7],100%
same,% Relative Activity with: 5,hydantoinase [8],100%
same,% Relative Activity with: 6,hydantoinase [10],55%
CC(C)CC1NC(=O)NC1=O (racemic) [DL-5-Isobutylhydantoin],Relative Activity (%),[4],77%
O=C1NC(=O)C(Cc2ccccc2)N1 (racemic) [DL-5-Benzylhydantoin],% Relative Activity with: ATCC 55632,[4],15%
same,Relative Activity (%),[4],19%
same,% Relative Activity with: 2,hydantoinase [9],2%
same,% Relative Activity with: 4,hydantoinase [7],57%
same,% Relative Activity with: 5,hydantoinase [8],32%
same,% Relative Activity with: 6,hydantoinase [10],100%
C[C@H](NC(N)=O)C(=O)O [N-carbamyl alanine],Specific Activity (U/mg),[2],0.44 U/mg
[Co+2] [Cobalt],Hydantoinase Activity (Units/ml),[1],27.9 Units/ml
CCC(C)C1NC(=O)NC1=O (racemic) [DL-5-(sec)-Butylhydantoin],Relative Activity (%),[4],76%
Tryptophan hydantoin,Specific Activity (U/mg),[2],0.10 U/mg
NC(=O)NCC(=O)O [Hydantoic acid],Specific Activity (U/mg),[2],1.34 U/mg
CN1CC(=O)NC1=O [1-Methylhydantoin],Specific Activity (U/mg),[2],0.09 U/mg
CC1NC(=O)NC1=O (racemic) [DL-5-Methylhydantoin],% Relative Activity with: ATCC 55632,[4],80%
same,Relative Activity (%),[4],100%
same,Specific Activity (U/mg),[2],1.65 U/mg
same,% Relative Activity with: 1,hydantoinase [5],100%
same,% Relative Activity with: 3,hydantoinase [6],45%
same,% Relative Activity with: 5,hydantoinase [8],24%
same,% Relative Activity with: 6,hydantoinase [10],37%
